Test results reported in patent US4530932A, “4-(1H-indol-3-yl)-α-methyl-piperidine-1-ethanol derivatives” (Roussel Uclaf, priority 1982, dated 1985).
Structures can show the parent of a compound that is named as a salt. Where two headings read alike, the source gives them in different places.

Columns and labels:
[1] = system: Rat arteries (arterial contractions, entry of calcium ions into the cells of smooth muscles); test: In vitro anticalcic activity (inhibition of potassium-depolarized, calcium-induced contractions of isolated rat arteries); format: cell-based; conditions: dose inhibiting by 50% the contractions caused by potassium ions (100 mM), 37° C., read-out: CI50 (the source's name)
Protocol: Rat arteries decoupled in a spiral were attached to a tension collector and were maintained in tanks containing 2.5 ml of Krebs-sodium bicarbonate buffer (NaCl: 120.8 mM, KCl: 5.9 mM, MgCl2 : 1.2 mM, NaH2 PO4 : 1.2 mM, NaHCO3 : 15.5 mM, glucose: 12.6 mM), at 37° C. covered with a 95%-5% oxygen-carbon dioxide mixture. The preparations were depolarized with a buffered solution containing 100 mM of potassium ions (NaCl: 26.7 mM, KCl: 100 mM, MgCl2 : 1.2 mM, NaH2 PO4 : 1.2 mM, NaHCO3 : 15.5 mM, glucose 12.6 mM).
A volume of 25 μl of calcium chloride was added to the mixture in a manner to obtain a range of increasing concentrations of calcium ions from 0.1 to 3.0 mM and the contractions of the artery were measured to obtain a control. The operation with range of calcium ions was repeated every 15 minutes and the preparation was washed 4 times after each range. When a stable response was obtained, the operation with the range of calcium ions was effected in the presence of varying concentrations of test compounds until a stable response was obtained.
The arterial contractions depend on the entry of calcium ions into the cells of smooth muscles and are provoked by depolarization of smooth muscles by potassium ions and by action of noradrenaline freed by presynapthic level. By recommencing the operation with denerved arteries by the action of 6-hydroxy-dopamine, the specific action due to noradrenaline is suppressed.

β1 adrenergic receptors = biological target: T1, β1 adrenergic receptors (Rattus norvegicus, UniProt P18090); test: Affinity for β1 adrenergic receptors (3H dihydroalprenolol displacement, rat brain cortex); format: binding; conditions: relative to propranolol, 37° C., pH 7.7
T1 construct: 10 cortexes removed from the brains of male rats weighing an average of 150 g; from tissue; host or cells: cerebral cortex of male rats (membranes)
T1 sequence (P18090 whole entry): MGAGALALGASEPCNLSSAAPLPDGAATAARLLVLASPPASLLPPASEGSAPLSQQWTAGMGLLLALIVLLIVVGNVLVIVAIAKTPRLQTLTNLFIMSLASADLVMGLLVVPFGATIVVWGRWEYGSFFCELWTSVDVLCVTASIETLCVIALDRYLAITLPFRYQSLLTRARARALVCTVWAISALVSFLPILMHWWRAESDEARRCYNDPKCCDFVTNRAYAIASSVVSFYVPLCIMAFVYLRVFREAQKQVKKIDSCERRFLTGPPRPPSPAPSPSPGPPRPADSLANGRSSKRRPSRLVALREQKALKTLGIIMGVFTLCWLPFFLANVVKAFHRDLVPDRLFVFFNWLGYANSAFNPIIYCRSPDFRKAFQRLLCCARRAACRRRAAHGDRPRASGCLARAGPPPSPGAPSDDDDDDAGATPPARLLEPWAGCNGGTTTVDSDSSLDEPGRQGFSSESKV
Protocol: The test was inspired by that of Mohler et al [Science, Vol. 198 (1977), p. 849-851] and 10 cortexes removed from the brains of male rats weighing an average of 150 g were homogenized in 90 ml of 0.32M of sucrose. After centrifuging the homogenized mixture at 1000 g for 20 minutes at 0° C., the surnageant was centrifuged at 30,000 g for 15 minutes at 0° to 4° C. The culot was suspended in 120 ml of buffer Tris HCl 50 mM with a pH of 7.7 and was centrifuged at 30,000 g for 15 minutes at 0° to 4° C. The resulting culot was suspended in 480 ml of buffer Krebs Tris HCl (50 mM-pH of 7.7) and 2 ml of the suspension in the presence of 3H dihydroalprenolol at a concentration of 10^-9 M alone and with increasing concentrations of the test compound or with non-radioactive propranolol at a concentration of 10^-5 M to determine the non-specific fixation was incubated at 37° C. for 10 minutes.
The incubated suspensions were filtered through Whatman GF/C and the filters were washed 3 times with 5 ml of buffer Krebs Tris HCl (pH-7.7) at 0° C. The radioactivity of the filters was measured by liquid scintillation and the affinity of the test compounds for β1 -adrenergic receptors was compared using propranolol as a standard as in Test D. The results are reported in Table VI.

mice = test: Acute toxicity (DL0, oral); format: in vivo, mouse; set-up: unit not given here
[2] = system: cardiac rhythm troubles in guinea pigs; test: Antiarythmic action (K-strophanthine and adrenaline induced cardiac rhythm troubles); format: in vivo, guinea pig; conditions: Cavia porcellus, 1 h, oral 10 mg/kg, one hour before K-strophanthine and adrenaline perfusion, read-out: Percentage of protection (lengthening of the time of appearance of cardiac rhythm troubles as compared to controls)
Protocol: Male guinea pigs weighing between 450 and 500 g were tracheotomized while anesthesized by intraperitoneal administration of […] of urethane and were subjected to artifical respiration of 40 to 50 breaths of 5 ml per minute. Needles were subcutaneously implanted to register an electrocardiogram of the guinea pigs for the signal of D II derivation. The test products were orally administered and one hour later, the jugular vein of the guinea pigs were perfused with 0.5 ml per minute of a solution of 150 γ/ml of K-strophanthine and 0.5 ml per minute of a solution of 5 γ/ml of adrenaline and the number of times of the appearance of cardiac rhythm troubles was noted. The results are expressed in percentage of protection with an oral dose of 10 mg/kg of test product that is to say the percentage of lengthening of the time of appearance of cardiac rhythm troubles as compared to the controls.

[3] = system: carotidien arterial pressure in rats; test: Hypotensive activity (carotidien arterial pressure in anesthesized rats); format: in vivo, rat (Wistar); conditions: rat, intravenous
Protocol: The hypotensive activity was studied on male rats of the Wistar strain weighing about 300 g and anesthesized with 50 mg/kg of nembutal intraveinously. The test products were administered intraveinously by the jugular vein and the carotidien arterial pressure was measured before and after administration of the test compounds. The variations expressed in percentage of arterial pressure after administration with respect to the initial pressure is reported in Table IV.

α1 adrenergic receptors = test: Affinity for α1 adrenergic receptors (3H prazosine displacement, rat brain); format: binding; conditions: relative to phentolamine (ARL=100×(CB/CX)), 25° C., pH 7.7
Protocol: After centrifugation at 30,000 g for 15 minutes at 0° to 4° C., the culot was suspended in 240 ml of buffer Tris HCl 50 mM (pH-7.7) and the suspension was centrifuged at 30,000 g for 20 minutes at 0° to 4° C. The new culot was suspended in 480 ml of buffer Krebs Tris HCl (pH of 7.7-50 mM) and 2 ml of the suspension in the presence of 3H prazosine at a concentration of […] alone and with increasing concentrations of the test compound or with non-radioactive phentolamine at a concentration of 10^-5 M to determine the non-specific fixation was incubated at 25° C. for 30 minutes.
The incubated suspensions were filtered through Whatman FG/C and the filtered were washed with 3 times with 5 ml of buffer Krebs Tris HCl-pH of 7.7 at 0° to 4° C. The radioactivity of the filters was measured by liquid scintillation and the affinity of the test compound for α1 adrenergic receptors was compared relative to phentolamine as the reference compound by the formula
CD=concentration of phentolamine inhibiting by 50% the specific fixation of 3H prazosine.
CX=concentration of test product inhibiting by 50% the specific fixation of 3H prazosine.

β2 -adrenergic receptors = biological target: T2, β2 -adrenergic receptors (Rattus norvegicus, UniProt P10608); test: Affinity for β2 adrenergic receptors (3H dihydroalprenolol displacement, rat cerebellum); format: binding; conditions: relative to propranolol, 37° C., pH 7.7
T2 construct: cerebellums of male rats weighing an average of 150 g; from tissue; host or cells: cerebellum of male rats (membranes)
T2 sequence (P10608 whole entry): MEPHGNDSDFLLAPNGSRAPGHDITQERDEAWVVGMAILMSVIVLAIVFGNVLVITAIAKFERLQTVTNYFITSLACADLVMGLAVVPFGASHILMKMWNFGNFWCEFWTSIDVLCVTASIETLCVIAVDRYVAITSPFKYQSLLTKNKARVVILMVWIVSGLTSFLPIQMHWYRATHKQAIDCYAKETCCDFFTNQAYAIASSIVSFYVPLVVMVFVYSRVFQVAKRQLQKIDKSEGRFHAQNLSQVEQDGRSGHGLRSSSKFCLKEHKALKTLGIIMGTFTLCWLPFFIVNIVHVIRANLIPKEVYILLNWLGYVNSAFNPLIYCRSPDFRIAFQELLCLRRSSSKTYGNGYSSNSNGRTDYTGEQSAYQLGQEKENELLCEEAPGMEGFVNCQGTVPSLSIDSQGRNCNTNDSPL
Protocol: The technique was inspired by that of Mohler et al [Science, Vol. 198 (1977), p. 849-851] and the cerebellums of male rats weighing an average of 150 g were homogenized in 90 ml of 0.32M sucrose. After centrifugation of the homogenized mixture at 1000 g for 20 minutes at 0° C., the surnageant was centrifuged at 30,000 g for 15 minutes at 0° to 4° C. The culot was suspended in 120 ml of buffer Tris HCl (50 mM-pH of 7.7) and the suspension was centrifuged at 30,000 g for 15 minutes at 0° to 4° C. The resulting culot was suspended in 480 ml of buffer Krebs Tris HCl with a pH of 7.7 and 2 ml of the suspension was incubated at 37° C. for 10 minutes in the presence of 3H dihydroalprenolol at a concentration of 10^-9 M alone and with increasing concentrations of the test compound or with 10^-5 M of non-radioactive propranolol to determine the non-specific fixation.
The incubated suspensions were filtered through Whatman FG/C filter and the filters were rinsed 3 times with 5 ml of buffer Krebs Tris HCl with a pH of 7.7 at 0° C. The radioactivity of the filters was measured by liquid scintillation and the affinity of the test compounds for β2 -adrenergic receptors relative to propranolol as a standard was determined similar as to Test D. The results are reported in Table VII.

[4] = 1 min, 1 minute, read-out: % Variation of arterial pressure after administration, 1 minute
[5] = 5 min, 5 minutes, read-out: % Variation of arterial pressure after administration, 5 minutes
[6] = 10 min, 10 minutes, read-out: % Variation of arterial pressure after administration, 10 minutes
[7] = 0.5 h, 30 minutes, read-out: % Variation of arterial pressure after administration, 30 minutes

| Compound | IC50 [1] | ARL in % (relative affinity for β1 adrenergic receptors) (β1 adrenergic receptors) | DL0 (maximum dose which did not cause any deaths after 8 days) (mice) | change in vivo at 10 mg/kg [2] | change in vivo at 1 mg/kg [3, 4] | change in vivo at 1 mg/kg [3, 5] | change in vivo at 1 mg/kg [3, 6] | change in vivo at 1 mg/kg [3, 7] | % Arl (relative affinity for α1 adrenergic receptors) (α1 adrenergic receptors) | ARL in % (relative affinity for β2 adrenergic receptors) (β2 -adrenergic receptors) |
| --- | --- | --- | --- | --- | --- | --- | --- | --- | --- | --- |
| OC(COc1cccc2ccccc12)CN1CCC(c2c[nH]c3ccccc23)CC1 (stereo not drawn) [Example 2, 4-(1H-indol-3-yl)-α-[1-naphthyloxymethyl]-piperidine-1-ethanol] | 3.5 µM | 0.9% | > 1000 | – | – | – | – | – | – | – |
| Cc1ccccc1OCC(O)CN1CCC(c2c[nH]c3ccccc23)CC1 (stereo not drawn) [Example 9, 4-(1H--indol-3-yl)-α-[2-methylphenoxymethyl]-piperidine-1-ethanol hydrochloride] | 3.8 µM | 2.55% | > 100 | 48% | -21% | -9% | -25% | -20% | 92% | – |
| Oc1ccccc1OCC(O)CN1CCC(c2c[nH]c3ccccc23)CC1 (stereo not drawn) [Example 13, 4-(1H--indol-3-yl)-α-[2-hydroxy-phenoxymethyl]-piperidine-1-ethanol hydrochloride] | 4.5 µM | 1.1% | > 100 | 112% | – | – | – | – | 293% | – |
| C=CCOc1ccccc1OCC(O)CN1CCC(c2c[nH]c3ccccc23)CC1 (stereo not drawn) [Example 1, 4-(1H-indol-3-yl)-α-[{2-(prop-2-enyloxy)-phenoxy}-methyl]-piperidine-1-ethanol hydrochloride] | 4 µM | 7.3% | 100 | 63% | – | – | – | – | 247% | 10.5% |
| C=CCc1ccccc1OCC(O)CN1CCC(c2c[nH]c3ccccc23)CC1 (stereo not drawn) [Example 7, 4-(1H--indol-3-yl)-α-[2-prop-2-enyl)-phenoxymethyl]-piperidine-1-ethanol hydrochloride] | 0.32 µM | 3.7% | > 200 | 50% | – | – | – | – | 100% | 10% |
| OC(COc1ccccc1F)CN1CCC(c2c[nH]c3ccccc23)CC1 (stereo not drawn) [Example 12, 4-(1H--indol-3-yl)-α-[2-fluorophenoxymethyl]-piperidine-1-ethanol hydrochloride] | 3.2 µM | 1.2% | 80 | 90% | -27% | -14% | -27% | -24% | 233% | – |
| OC(COc1ccccc1C1CCCCC1)CN1CCC(c2c[nH]c3ccccc23)CC1 (stereo not drawn) [Example 15, 4-(1H--indol-3-yl)-α-[2-cyclohexyl-phenoxymethyl]-piperidine-1-ethanol hydrochloride] | 5 µM | – | > 100 | – | – | – | – | – | – | 5.4% |
| C#CCc1ccccc1OCC(O)CN1CCC(c2c[nH]c3ccccc23)CC1 (stereo not drawn) [Example 16, 4-(1H--indol-3-yl)-α-[2-(prop-2-ynyl)-phenoxymethyl]-piperidine-1-ethanol hydrochloride] | 1.6 µM | 5.8% | > 100 | 71% | – | – | – | – | 321% | 11% |
| OC(COc1ccccc1Cl)CN1CCC(c2c[nH]c3ccccc23)CC1 (stereo not drawn) [Example 10, 4-(1H--indol-3-yl)-α-[2-chlorophenoxymethyl]-piperidine-1-ethanol hydrochloride] | 2 µM | 1.95% | > 100 | 59% | -21% | -20% | -12% | -20% | – | – |
| O=[N+]([O-])c1ccccc1OCC(O)CN1CCC(c2c[nH]c3ccccc23)CC1 (stereo not drawn) [Example 11, 4-(1H--indol-3-yl)-α-[2-nitrophenoxymethyl]-piperidine-1-ethanol hydrochloride] | 4.2 µM | 1.2% | 100 | 56% | – | – | – | – | 77% | – |
